Data: US20230085307A1, “PYRIDAZINONE COMPOUND AND HERBICIDE” (NISSAN CHEMICAL CORPORATION, priority 2019, published 2023)

What was measured:
velvetleaf [1] = experiment: Test Example 4: herbicidal effect by soil treatment (Table 19, symbol M); assay type: in vivo, velvetleaf (Abutilon theophrasti); details: amount of applied herbicide 320 g/ha
Method in brief: (§1)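 In this soil treatment, the formulated compound reached the seeds only through the soil: seeds were buried about 1.5 cm deep in sterilized diluvial soil, then the diluted emulsion was sprayed over the surface. After three weeks at 25° C. to 30° C. in a greenhouse, effects were graded on criteria from an earlier test.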

lambsquarters [2] = experiment: Test Example 4: herbicidal effect by soil treatment (Table 19, symbol O); assay type: in vivo, lambsquarters (Chenopodium album); details: amount of applied herbicide 320 g/ha
Method in brief: as §1

green foxtail [3] = experiment: Test Example 4: herbicidal effect by soil treatment (Table 19, symbol G); assay type: in vivo, green foxtail (Setaria viridis); details: amount of applied herbicide 320 g/ha
Method in brief: as §1

persian speedwell [4] = experiment: Test Example 4: herbicidal effect by soil treatment (Table 19, symbol R); assay type: in vivo, Persian speedwell (Veronica persica); details: amount of applied herbicide 320 g/ha
Method in brief: as §1

wild oat [5] = experiment: Test Example 5: herbicidal effect by foliage application, plastic box (Table 20, symbol I); assay type: in vivo, wild oat (Avena fatua); details: amount of applied herbicide 320 g/ha; foliage application after 14-day growth; evaluated three weeks after application
Method in brief: (§2)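 Plants were sown into sterilized diluvial soil under about 1.5 cm cover and kept in a greenhouse at 25° C. to 30° C. Fourteen days on, foliage received an even spray of the diluted emulsion. Herbicidal or crop effect was judged three weeks afterwards.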

redroot pigweed [6] = experiment: Test Example 4: herbicidal effect by soil treatment (Table 19, symbol N); assay type: in vivo, redroot pigweed (Amaranthus retroflexus); details: amount of applied herbicide 320 g/ha
Method in brief: as §1

southern crabgrass [7] = experiment: Test Example 4: herbicidal effect by soil treatment (Table 19, symbol F); assay type: in vivo, southern crabgrass (Digitaria ciliaris); details: amount of applied herbicide 320 g/ha
Method in brief: as §1

redroot pigweed [8] = experiment: Test Example 5: herbicidal effect by foliage application, plastic box (Table 20, symbol N); assay type: in vivo, redroot pigweed (Amaranthus retroflexus); details: amount of applied herbicide 320 g/ha; foliage application after 14-day growth; evaluated three weeks after application
Method in brief: as §2

velvetleaf [9] = experiment: Test Example 5: herbicidal effect by foliage application, plastic box (Table 20, symbol M); assay type: in vivo, velvetleaf (Abutilon theophrasti); details: amount of applied herbicide 320 g/ha; foliage application after 14-day growth; evaluated three weeks after application
Method in brief: as §2

blackgrass [10] = experiment: Test Example 5: herbicidal effect by foliage application, plastic box (Table 20, symbol J); assay type: in vivo, blackgrass (Alopecurus myosuroides); details: amount of applied herbicide 320 g/ha; foliage application after 14-day growth; evaluated three weeks after application
Method in brief: as §2

windgrass [11] = experiment: Test Example 4: herbicidal effect by soil treatment (Table 19, symbol L); assay type: in vivo, windgrass (Apera spica-venti); details: amount of applied herbicide 320 g/ha
Method in brief: as §1

barnyard grass [12] = experiment: Test Example 3: herbicidal effect by foliage application, Wagner pot (Table 18, symbol H); assay type: in vivo, barnyard grass (Echinochloa crus-galli); details: 320 g/ha
Method in brief: (§3)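 Plants were sown in alluvial soil held under 0.1–0.5 cm standing water and grown 14 days in a greenhouse at 25–30 °C. An emulsifiable formulation, water-diluted to the set dose, was then sprayed onto the foliage, and effects were scored three weeks later using previously defined criteria.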

lambsquarters [13] = experiment: Test Example 5: herbicidal effect by foliage application, plastic box (Table 20, symbol O); assay type: in vivo, lambsquarters (Chenopodium album); details: amount of applied herbicide 320 g/ha; foliage application after 14-day growth; evaluated three weeks after application
Method in brief: as §2

chickweed [14] = experiment: Test Example 4: herbicidal effect by soil treatment (Table 19, symbol P); assay type: in vivo, common chickweed (Stellaria media); details: amount of applied herbicide 320 g/ha
Method in brief: as §1

Italian ryegrass [15] = experiment: Test Example 4: herbicidal effect by soil treatment (Table 19, symbol K); assay type: in vivo, Italian ryegrass (Lolium multiflorum); details: amount of applied herbicide 320 g/ha
Method in brief: as §1

wild oat [16] = experiment: Test Example 4: herbicidal effect by soil treatment (Table 19, symbol I); assay type: in vivo, wild oat (Avena fatua); details: amount of applied herbicide 320 g/ha
Method in brief: as §1

persian speedwell [17] = experiment: Test Example 5: herbicidal effect by foliage application, plastic box (Table 20, symbol R); assay type: in vivo, Persian speedwell (Veronica persica); details: amount of applied herbicide 320 g/ha; foliage application after 14-day growth; evaluated three weeks after application
Method in brief: as §2

chickweed [18] = experiment: Test Example 5: herbicidal effect by foliage application, plastic box (Table 20, symbol P); assay type: in vivo, common chickweed (Stellaria media); details: amount of applied herbicide 320 g/ha; foliage application after 14-day growth; evaluated three weeks after application
Method in brief: as §2

rice flat sedge = experiment: Test Example 3: herbicidal effect by foliage application, Wagner pot (Table 18, symbol E); assay type: in vivo, rice flat sedge (Cyperus iria); details: 320 g/ha
Method in brief: as §3

barnyard grass [19] = experiment: Test Example 5: herbicidal effect by foliage application, plastic box (Table 20, symbol H); assay type: in vivo, barnyard grass (Echinochloa crus-galli); details: amount of applied herbicide 320 g/ha; foliage application after 14-day growth; evaluated three weeks after application
Method in brief: as §2

blackgrass [20] = experiment: Test Example 4: herbicidal effect by soil treatment (Table 19, symbol J); assay type: in vivo, blackgrass (Alopecurus myosuroides); details: amount of applied herbicide 320 g/ha
Method in brief: as §1

Italian ryegrass [21] = experiment: Test Example 5: herbicidal effect by foliage application, plastic box (Table 20, symbol K); assay type: in vivo, Italian ryegrass (Lolium multiflorum); details: amount of applied herbicide 320 g/ha; foliage application after 14-day growth; evaluated three weeks after application
Method in brief: as §2

barnyard grass [22] = experiment: Test Example 4: herbicidal effect by soil treatment (Table 19, symbol H); assay type: in vivo, barnyard grass (Echinochloa crus-galli); details: amount of applied herbicide 320 g/ha
Method in brief: as §1

windgrass [23] = experiment: Test Example 5: herbicidal effect by foliage application, plastic box (Table 20, symbol L); assay type: in vivo, windgrass (Apera spica-venti); details: amount of applied herbicide 320 g/ha; foliage application after 14-day growth; evaluated three weeks after application
Method in brief: as §2

Chinese sprangletop = experiment: Test Example 3: herbicidal effect by foliage application, Wagner pot (Table 18, symbol D); assay type: in vivo, chinese sprangletop (Leptochloa chinensis); details: 320 g/ha
Method in brief: as §3

green foxtail [24] = experiment: Test Example 5: herbicidal effect by foliage application, plastic box (Table 20, symbol G); assay type: in vivo, green foxtail (Setaria viridis); details: amount of applied herbicide 320 g/ha; foliage application after 14-day growth; evaluated three weeks after application
Method in brief: as §2

southern crabgrass [25] = experiment: Test Example 5: herbicidal effect by foliage application, plastic box (Table 20, symbol F); assay type: in vivo, southern crabgrass (Digitaria ciliaris); details: amount of applied herbicide 320 g/ha; foliage application after 14-day growth; evaluated three weeks after application
Method in brief: as §2

Compound	M: velvetleaf, herbicidal effect grade (velvetleaf [1])	O: lambsquarters, herbicidal effect grade (lambsquarters [2])	G: green foxtail, herbicidal effect grade (green foxtail [3])	R: persian speedwell, herbicidal effect grade (persian speedwell [4])	Herbicidal effect by foliage application, I: wild oat (wild oat [5])	N: redroot pigweed, herbicidal effect grade (redroot pigweed [6])	F: southern crabgrass, herbicidal effect grade (southern crabgrass [7])	Herbicidal effect by foliage application, N: redroot pigweed (redroot pigweed [8])	Herbicidal effect by foliage application, M: velvetleaf (velvetleaf [9])	Herbicidal effect by foliage application, J: blackgrass (blackgrass [10])	L: windgrass, herbicidal effect grade (windgrass [11])	herbicidal effect on barnyard grass (H) (barnyard grass [12])	Herbicidal effect by foliage application, O: lambsquarters (lambsquarters [13])	P: chickweed, herbicidal effect grade (chickweed [14])	K: Italian ryegrass, herbicidal effect grade (Italian ryegrass [15])	I: wild oat, herbicidal effect grade (wild oat [16])	Herbicidal effect by foliage application, R: persian speedwell (persian speedwell [17])	Herbicidal effect by foliage application, P: chickweed (chickweed [18])	herbicidal effect on rice flat sedge (E) (rice flat sedge)	Herbicidal effect by foliage application, H: barnyard grass (barnyard grass [19])	further results
Cc1nn(C)c(=O)c(-c2c(-c3ccc(OC(F)(F)F)cc3)sc3c(C)cccc23)c1O [4-130]	2 (Herbicidal rate of 20% or more and less than 40%)	1 (Herbicidal rate of 5% or more and less than 20%)	0 (Herbicidal rate of 5% or less (almost no effect))	4 (Herbicidal rate of 70% or more and less than 90%)	0 (Herbicidal rate of 5% or less (almost no effect))	5 (Herbicidal rate of 90% or more (almost completely withered))	0 (Herbicidal rate of 5% or less (almost no effect))	5 (Herbicidal rate of 90% or more (almost completely withered))	4 (Herbicidal rate of 70% or more and less than 90%)	3 (Herbicidal rate of 40% or more and less than 70%)	0 (Herbicidal rate of 5% or less (almost no effect))	3 (Herbicidal rate of 40% or more and less than 70%)	5 (Herbicidal rate of 90% or more (almost completely withered))	1 (Herbicidal rate of 5% or more and less than 20%)	0 (Herbicidal rate of 5% or less (almost no effect))	0 (Herbicidal rate of 5% or less (almost no effect))	5 (Herbicidal rate of 90% or more (almost completely withered))	5 (Herbicidal rate of 90% or more (almost completely withered))	4 (Herbicidal rate of 70% or more and less than 90%)	0 (Herbicidal rate of 5% or less (almost no effect))	J: blackgrass, herbicidal effect grade (blackgrass [20]): 0 (Herbicidal rate of 5% or less (almost no effect)); Herbicidal effect by foliage application, K: Italian ryegrass (Italian ryegrass [21]): 3 (Herbicidal rate of 40% or more and less than 70%); H: barnyard grass, herbicidal effect grade (barnyard grass [22]): 0 (Herbicidal rate of 5% or less (almost no effect)); Herbicidal effect by foliage application, L: windgrass (windgrass [23]): 3 (Herbicidal rate of 40% or more and less than 70%); herbicidal effect on Chinese sprangletop (D) (Chinese sprangletop): 0 (Herbicidal rate of 5% or less (almost no effect)); Herbicidal effect by foliage application, G: green foxtail (green foxtail [24]): 0 (Herbicidal rate of 5% or less (almost no effect)); Herbicidal effect by foliage application, F: southern crabgrass (southern crabgrass [25]): 0 (Herbicidal rate of 5% or less (almost no effect))
Cc1ccc(-c2sc3cc(F)c(F)cc3c2-c2c(O)c(C)nn(C)c2=O)cc1 [5-003]	2 (Herbicidal rate of 20% or more and less than 40%)	5 (Herbicidal rate of 90% or more (almost completely withered))	4 (Herbicidal rate of 70% or more and less than 90%)	4 (Herbicidal rate of 70% or more and less than 90%)	0 (Herbicidal rate of 5% or less (almost no effect))	3 (Herbicidal rate of 40% or more and less than 70%)	1 (Herbicidal rate of 5% or more and less than 20%)	5 (Herbicidal rate of 90% or more (almost completely withered))	5 (Herbicidal rate of 90% or more (almost completely withered))	0 (Herbicidal rate of 5% or less (almost no effect))	0 (Herbicidal rate of 5% or less (almost no effect))	3 (Herbicidal rate of 40% or more and less than 70%)	5 (Herbicidal rate of 90% or more (almost completely withered))	4 (Herbicidal rate of 70% or more and less than 90%)	0 (Herbicidal rate of 5% or less (almost no effect))	0 (Herbicidal rate of 5% or less (almost no effect))	5 (Herbicidal rate of 90% or more (almost completely withered))	5 (Herbicidal rate of 90% or more (almost completely withered))	5 (Herbicidal rate of 90% or more (almost completely withered))	0 (Herbicidal rate of 5% or less (almost no effect))	J: blackgrass, herbicidal effect grade (blackgrass [20]): 0 (Herbicidal rate of 5% or less (almost no effect)); Herbicidal effect by foliage application, K: Italian ryegrass (Italian ryegrass [21]): 2 (Herbicidal rate of 20% or more and less than 40%); H: barnyard grass, herbicidal effect grade (barnyard grass [22]): 3 (Herbicidal rate of 40% or more and less than 70%); Herbicidal effect by foliage application, L: windgrass (windgrass [23]): 0 (Herbicidal rate of 5% or less (almost no effect)); herbicidal effect on Chinese sprangletop (D) (Chinese sprangletop): 3 (Herbicidal rate of 40% or more and less than 70%); Herbicidal effect by foliage application, G: green foxtail (green foxtail [24]): 2 (Herbicidal rate of 20% or more and less than 40%); Herbicidal effect by foliage application, F: southern crabgrass (southern crabgrass [25]): 0 (Herbicidal rate of 5% or less (almost no effect))
